Tested on: progenitor stem cells in the subgranular zone (SGZ) of the hippocampus
Experiment: BrdU immunostaining, cell proliferation in hippocampal SGZ after chronic antidepressant
Assay type: in vivo, rat
Settings: P<0.01; for number of proliferating (BrdU-positive) cells in the SGZ compared with saline-treated control rats: FIG. 1A, chronic administration; for increase in the proliferation rate of progenitor stem cells in the SGZ: versus saline controls, 2 week systemic administration, BrdU twice a day for 4 days, n=5
Experimental: Antidepressant treatment and BrdU dosing. Dosing of adult male Sprague Dawley rats was performed as described above for 14 days (n=10 rats per group). To evaluate the effect of chronic antidepressant treatment on proliferation of progenitor stem cells, 24 hours after the last antidepressant injection, rats were administered BrdU (Sigma, St. Louis, Mo.) (50 mg/kg rig ip injection twice a day) for 4 days prior to euthanesia. To evaluate the effect of chronic antidepressant treatment on survival of progenitor stem cells, a sub-group of rats were allowed to live for 4 weeks after BrdU injection. All rats were perfused through the ascending aorta with 50 ml of 0.9% saline, followed by 400 ml of freshly prepared 4% paraformaldehyde in PBS (pH 7.5). After 30-60 minutes post-perfusion, rat brains were removed and postfixed in 4% paraformaldehyde in PBS overnight, followed by immersion in 30% sucrose/PBS solution for 48-72 hours at 4° C. Brains were rapidly frozen on dry-ice and stored at −80° C. Brain sectioning and staining for BrdU immunoreactivity were performed as previously described by Malberg et al. (2000). Briefly, serial coronal sections of each brain were cut (35 μm thickness) through the entire hippocampus (stereotaxic plates 26-40 according to Paxinos, Watson and Emson, 1980) using a freezing microtome. Every sixth section throughout the hippocampus was processed for BrdU staining. Free-floating sections were maintained in 100 mM PBS (about 100 sections per brain). DNA denaturation of the sections was performed as follows: sections were treated with 50% formamide/50% 2×SSC (0.3 M NaCl/0.03 M sodium citrate) for 2 hours at 65° C., rinsed in PBS (2 times for 5 minutes at room temperature), incubated with 2 N HCl for 30 minutes, followed by 0.1 M boric acid buffer (pH 8.5) for 10 minutes and a final rinse in PBS. For BrdU immunostaining, sections were incubated with 3% H2O2 in PBS for 30 minutes, rinsed in PBS and blocked with 3% normal horse serum in 0.01% TritonX-100 for 30 minutes. […] All BrdU labeled cells in the subgranular zone (SGZ) were counted in each section by an experimenter blinded to the study code. […] The total number of BrdU labeled cells per section were determined and multiplied by 12 to obtain the total number of cells per dentate gyrus. […]
In vivo studies were performed to measure the effects of antidepressant drug treatment on adult hippocampal neurogenesis by immunological methods. […] The BrdU immunostaining and quantitative results indicated a significant increase (˜33%) in the proliferation rate of progenitor stem cells in the subgranular zone (SGZ) of the hippocampus for both venlafaxine (P<0.01; n=5) and fluoxetine (P<0.01; n=5) versus saline controls. […]

| Compound | number of proliferating (BrdU-positive) cells in the SGZ compared with saline-treated control rats | increase in the proliferation rate of progenitor stem cells in the SGZ [%] |
| --- | --- | --- |
| CNCCC(Oc1ccc(C(F)(F)F)cc1)c1ccccc1 (stereo not shown) [Fluoxetine, fluoxetine] | increased the number of proliferating cells in the SGZ | ~33 |
| COc1ccc(C(CN(C)C)C2(O)CCCCC2)cc1 (stereo not shown) [Venlafaxine, venlafaxine] | increased the number of proliferating cells in the SGZ | ~33 |
